Laboratory results: US5908852A, “1,3,5 trisubstituted pyrazole compounds for treatment of inflammation” (G. D. Searle & Co., priority 1996, dated 1999)

Legend:
Human COX I = Human COX I (Homo sapiens, UniProt P23219); experiment: biochemical; conditions: recombinant enzyme, CHAPS-solubilized insect cell membranes; arachidonic acid 10 μM; pre-incubation 10-20 minutes; pH 8.0; read-out: Human COX I ID50
Experimental: (§1) Recombinant baculoviruses were isolated by transfecting 4 μg of baculovirus transfer vector DNA into SF9 insect cells ([…]) along with 200 ng of linearized baculovirus plasmid DNA by the calcium phosphate method. See M. D. Summers and G. E. Smith, A Manual of Methods for Baculovirus Vectors and Insect Cell Culture Procedures, Texas Agric. Exp. Station Bull. […] Recombinant viruses were purified by three rounds of plaque purification and high titer (10E7-10E8 pfu/ml) stocks of virus were prepared. For large scale production, SF9 insect cells were infected in 10 liter fermentors (0.5×10^6 /ml) with the recombinant baculovirus stock such that the multiplicity of infection was 0.1. After 72 hours the cells were centrifuged and the cell pellet homogenized in Tris/Sucrose (50 mM: 25%, pH 8.0) containing 1% 3-[(3-cholamidopropyl)dimethylammonio]-1-propanesulfonate (CHAPS). The homogenate was centrifuged at 10,000×G for 30 minutes, and the resultant supernatant was stored at -80° C. before being assayed for COX activity.
COX activity was assayed as PGE2 formed/μg protein/time using an ELISA to detect the prostaglandin released. CHAPS-solubilized insect cell membranes containing the appropriate COX enzyme were incubated in a potassium phosphate buffer (50 mM, pH 8.0) containing epinephrine, phenol, and heme with the addition of arachidonic acid (10 μM). Compounds were pre-incubated with the enzyme for 10-20 minutes prior to the addition of arachidonic acid. […] The PGE2 formed was measured by standard ELISA technology (Cayman Chemical).

Human COX II = target: T1, Human COX II (Homo sapiens, UniProt P35354); experiment: COX II activity in vitro (PGE2 formed, ELISA); format: biochemical; conditions: recombinant enzyme, CHAPS-solubilized insect cell membranes; arachidonic acid 10 μM; pre-incubation 10-20 minutes; pH 8.0; read-out: Human COX II ID50
T1 construct: A 2.0 kb fragment containing the coding region of either human or murine COX-I or human or murine COX-II was cloned; made in house; host or cells: SF9 insect cells infected with recombinant baculovirus (transfer vector pVL1393); CHAPS-solubilized preparation
T1 sequence (P35354 18-604): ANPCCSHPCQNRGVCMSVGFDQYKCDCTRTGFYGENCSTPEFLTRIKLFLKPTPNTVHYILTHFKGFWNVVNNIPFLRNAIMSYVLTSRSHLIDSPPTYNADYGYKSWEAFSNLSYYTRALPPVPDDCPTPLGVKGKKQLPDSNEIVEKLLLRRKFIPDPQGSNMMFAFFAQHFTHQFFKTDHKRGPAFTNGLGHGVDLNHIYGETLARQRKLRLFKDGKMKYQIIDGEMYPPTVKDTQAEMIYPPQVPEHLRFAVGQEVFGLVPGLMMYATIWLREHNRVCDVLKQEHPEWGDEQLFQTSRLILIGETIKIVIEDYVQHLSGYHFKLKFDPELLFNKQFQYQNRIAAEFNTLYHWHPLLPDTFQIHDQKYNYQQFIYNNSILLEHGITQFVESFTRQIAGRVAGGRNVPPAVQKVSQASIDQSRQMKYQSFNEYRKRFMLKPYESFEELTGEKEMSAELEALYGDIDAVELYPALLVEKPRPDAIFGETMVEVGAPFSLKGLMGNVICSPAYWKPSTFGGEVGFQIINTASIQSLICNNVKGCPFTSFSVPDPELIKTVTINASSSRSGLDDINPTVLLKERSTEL
Experimental: as §1
COX activity was assayed as PGE2 formed/μg protein/time using an ELISA to detect the prostaglandin released. […] The PGE2 formed was measured by standard ELISA technology (Cayman Chemical).

Chain of Human COX I (P23219 24-599): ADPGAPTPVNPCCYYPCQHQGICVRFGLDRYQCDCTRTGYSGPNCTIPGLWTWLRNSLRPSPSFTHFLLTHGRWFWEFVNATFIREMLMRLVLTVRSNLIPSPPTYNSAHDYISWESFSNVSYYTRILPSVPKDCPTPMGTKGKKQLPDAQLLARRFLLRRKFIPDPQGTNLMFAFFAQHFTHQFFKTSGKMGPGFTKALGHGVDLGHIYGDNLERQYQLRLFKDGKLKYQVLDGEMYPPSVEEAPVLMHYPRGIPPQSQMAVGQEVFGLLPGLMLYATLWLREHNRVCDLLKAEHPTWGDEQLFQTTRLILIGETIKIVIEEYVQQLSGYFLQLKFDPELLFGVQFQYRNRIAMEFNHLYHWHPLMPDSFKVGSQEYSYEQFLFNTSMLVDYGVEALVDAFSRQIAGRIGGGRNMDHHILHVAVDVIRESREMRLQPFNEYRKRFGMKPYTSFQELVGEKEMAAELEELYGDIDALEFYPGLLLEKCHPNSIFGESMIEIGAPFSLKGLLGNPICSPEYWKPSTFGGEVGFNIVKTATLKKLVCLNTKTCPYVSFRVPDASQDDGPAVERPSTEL

| Structure (SMILES) | IC50 (Human COX I) [µM] | IC50 (Human COX II) [µM] |
| --- | --- | --- |
| Cc1ccc(-c2cc(-c3ccc(C)cc3)n(-c3ccc(S(N)(=O)=O)cc3)n2)cc1 [Example 2a, 4-(3,5-bis(4-methylphenyl)-1H-pyrazol-1-yl)benzenesulfonamide] | 13.6 | – |
| COc1ccc(-c2cc(-c3ccc(OC)cc3)n(-c3ccc(S(N)(=O)=O)cc3)n2)cc1 [Example 2c, 4-(3,5-bis(4-methoxyphenyl)-1H-pyrazol-1-yl)benzenesulfonamide] | 2.1 | 0.5 |

More lines, now with the values ahead:

| IC50 (Human COX I) [µM] | IC50 (Human COX II) [µM] | Structure (SMILES) |
| --- | --- | --- |
| 19.1 | – | NS(=O)(=O)c1ccc(-n2nc(-c3ccccc3)cc2-c2ccc(Cl)cc2)cc1 [Example 2b, 4-(5-(4-chlorophenyl)-3-phenyl-1H-pyrazol-1-yl)benzenesulfonamide] |
| 12.7 | – | Cc1ccc(-c2cc(-c3ccc(Cl)cc3)n(-c3ccc(S(N)(=O)=O)cc3)n2)cc1 [Example 2d, 4-(5-(4-chlorophenyl)-3-(4-methylphenyl)-1H-pyrazol-1-yl)benzenesulfonamide] |
| > 100 | 0.7 | NS(=O)(=O)c1ccc(-n2nc(-c3ccc([N+](=O)[O-])cc3)cc2-c2ccc(Cl)cc2)cc1 [Example 2e, 4-(5-(4-chlorophenyl)-3-(4-nitrophenyl)-1H-pyrazol-1-yl)benzenesulfonamide] |
